The subject of one series is P. falciparum NF54. Put plainly: P. falciparum blood stage assay (SYBR Green). Type of series: cell-based, Plasmodium falciparum. The following applies: 72 h; for P. falciparum blood-stage development (parasite DNA level fluorescence): untreated = 129; for IC50: ring-stage parasites, relative IC50. The procedure: To assess whether any of the PvNMTis developed here could qualify as TCP-1 candidates, we assessed the effect of each compound on blood-stage P. falciparum parasites, as there is currently no well-established in vitro platform for screening P. vivax blood-stage parasites. Synchronized P. falciparum NF54 ring-stage parasites were treated for 72 h with each compound at various concentrations, ranging from 0.625 µM to 10 µM, and parasite DNA replication was measured using a fluorescent DNA binding dye (SYBR Green).
Sorbitol-synchronized P. falciparum NF54 ring-stage parasites were cultured at a parasitemia of 0.5% and hematocrit of 1.5% in a 96-well microtiter plate. Parasites were treated with each NMT inhibitor compound at 0.625, 1.25, 2.5, 5, or 10 µM for 72 h. Direct lysis of the blood cells to release the parasite DNA was performed by adding 100 μl of LBS buffer containing SYBR green I DNA binding dye to each well. […] ICEstimator regression analysis (http://www.antimalarial-icestimator.net/) was used to obtain relative IC50 values for each compound.

Series [1] in a line: HepG2 cytotoxicity assay (Live/Dead staining). The following applies: human, HepG2 cells. The essentials:
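HepG2 cells (5000/well) treated with compounds at 1 to 20 µM, re-dosed with fresh compound every 24 h. Viability scored at 72 h by calcein-AM/ethidium homodimer (1 µM each, 10 min, 37 °C) live/dead staining under fluorescence microscopy.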

The target of another series is T1, HsNMT1 (Homo sapiens, UniProt P30419).
T1 sequence (P30419 1-496): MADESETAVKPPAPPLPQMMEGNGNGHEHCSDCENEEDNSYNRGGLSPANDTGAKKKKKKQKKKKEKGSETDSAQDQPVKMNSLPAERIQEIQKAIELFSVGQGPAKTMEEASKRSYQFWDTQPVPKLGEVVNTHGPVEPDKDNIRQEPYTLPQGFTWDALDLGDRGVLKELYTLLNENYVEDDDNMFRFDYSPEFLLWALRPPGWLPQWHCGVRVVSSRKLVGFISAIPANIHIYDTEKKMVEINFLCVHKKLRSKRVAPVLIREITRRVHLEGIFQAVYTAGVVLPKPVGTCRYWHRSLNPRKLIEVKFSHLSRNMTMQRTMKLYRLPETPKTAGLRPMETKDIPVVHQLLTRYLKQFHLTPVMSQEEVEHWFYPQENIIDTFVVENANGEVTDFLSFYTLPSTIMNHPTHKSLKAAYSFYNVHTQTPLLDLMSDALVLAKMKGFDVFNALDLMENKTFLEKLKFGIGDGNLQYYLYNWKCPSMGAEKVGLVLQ
Description: NMT activity assay (CPM detection of free CoA), HsNMT.

The next series deals with PvNMT (Plasmodium vivax, UniProt A5K1A2). Description: NMT activity assay (CPM detection of free CoA), PvNMT. The following applies: for SI: enzyme selectivity, HsNMT IC50/PvNMT IC50.
Where [2] appears, read: PvNMT IC50, mean of two or more determinations.
Setting [3] is: read-out: HsNMT IC50, mean of two or more determinations.
The mark [4] stands for this setting: read-out: PvNMT IC50, mean of two or more determinations.

The values below come from PMC10480161, “Identification of potent and selective N-myristoyltransferase inhibitors of Plasmodium vivax liver stage hypnozoites and schizonts” (Nature Communications, 2023).

Several values for one entry are separate records, joined by “and”; a condition that tells them apart may be missing. Equal entries are not always repeated. Where two headings read alike, the source gives them in different places. Bounds are passed on as bounds.

PvNMT, sequence (A5K1A2 entry or part of it): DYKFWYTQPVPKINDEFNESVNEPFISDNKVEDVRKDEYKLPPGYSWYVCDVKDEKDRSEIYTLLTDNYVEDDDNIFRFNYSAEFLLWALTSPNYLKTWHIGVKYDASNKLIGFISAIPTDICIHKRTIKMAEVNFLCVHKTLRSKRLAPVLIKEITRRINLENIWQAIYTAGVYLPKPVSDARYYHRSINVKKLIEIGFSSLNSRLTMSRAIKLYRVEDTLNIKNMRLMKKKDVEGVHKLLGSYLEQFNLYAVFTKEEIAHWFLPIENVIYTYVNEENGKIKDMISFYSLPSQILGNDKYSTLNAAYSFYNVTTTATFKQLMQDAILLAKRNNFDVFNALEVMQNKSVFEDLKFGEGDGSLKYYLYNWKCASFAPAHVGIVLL

In the case of `Cc1nn(C)c(C)c1CCOc1ccccc1-c1cccc(OCCN(C)C)c1` [Compound 26b], the “P. falciparum blood-stage development (parasite DNA level fluorescence)” value (from here on “P. falciparum blood-stage development”) in the series with P. falciparum NF54 (0.625 uM) was 123.3; in the series on P. falciparum NF54 (1.25 uM), 124.2; with P. falciparum NF54 (2.5 uM), 115.6; in the series with P. falciparum NF54 (5 uM), 103.2; with P. falciparum NF54 (10 uM), 94.32. Further, the IC50 (commonly the midpoint of a concentration-inhibition curve) in the series with P. falciparum NF54 (Plasmodium falciparum, NF54) turned out to be 710 nM; against HsNMT1, 9850 nM; against PvNMT (setting [2]) it was 83.2 nM. Moreover, the IC50 at 48 h in series [1] is > 20000 nM. This compound registered an SI on PvNMT of 118.4.

Turning to `c1cncc(CCOc2ccccc2-c2ccnc(N3CCNCC3)c2)c1` [Compound 12j], the “P. falciparum blood-stage development” value stood at 106.8 in the series with P. falciparum NF54 (0.625 uM); 108.9 with P. falciparum NF54 (1.25 uM); 108.6 in the series on P. falciparum NF54 (2.5 uM); 101.9 in the series with P. falciparum NF54 (5 uM); 74.22 in the series on P. falciparum NF54 (10 uM). For the same compound, the half-inhibitory concentration (IC50) in the series with P. falciparum NF54 (Plasmodium falciparum, NF54) worked out at 1250 nM; against HsNMT1, 27400 nM; at PvNMT (setting [2]) it was 124 nM. Moreover, the half-inhibitory concentration (IC50) at 48 h in series [1] is > 20000 nM. This compound also showed an SI on PvNMT of 220.6.

On to `Fc1ccc(-c2ccnc(N3CCNCC3)c2)c(OCCc2cccnc2)c1` [Compound 12l], for which the “P. falciparum blood-stage development” value was determined as 110.1 in the series on P. falciparum NF54 (0.625 uM); 110.9 in the series on P. falciparum NF54 (1.25 uM); 110.4 with P. falciparum NF54 (2.5 uM); 99.67 with P. falciparum NF54 (5 uM); 86.75 in the series with P. falciparum NF54 (10 uM). In addition, the IC50 stood at 370 nM with P. falciparum NF54 (Plasmodium falciparum, NF54); 1710 nM on HsNMT1; 23.4 nM against PvNMT (setting [2]). The half-maximal inhibitory concentration (IC50) at 48 h in series [1] was > 20000 nM. For the same compound, the SI at PvNMT is listed as 73.

Regarding `c1cncc(CCOc2ccc3ccccc3c2-c2ccnc(N3CCNCC3)c2)c1` [Compound 30c], the “P. falciparum blood-stage development” value in the series with P. falciparum NF54 (0.625 uM) was 126.9; with P. falciparum NF54 (1.25 uM), 124; with P. falciparum NF54 (2.5 uM) it was 114.3; in the series on P. falciparum NF54 (5 uM), 101.4; with P. falciparum NF54 (10 uM), 93.99. Besides, the IC50 with P. falciparum NF54 (Plasmodium falciparum, NF54) worked out at 680 nM; at PvNMT (setting [2]), 248 nM. For the same compound, the IC50 at 48 h in series [1] was > 20000 nM.

Turning to `Cc1n[nH]c(C)c1CCOc1cc(F)ccc1-c1ccnc(N2CCNCC2)c1` [Compound 12q], the “P. falciparum blood-stage development” value with P. falciparum NF54 (0.625 uM) was determined as 114.1; in the series with P. falciparum NF54 (1.25 uM), 119.1; in the series with P. falciparum NF54 (2.5 uM), 116.1; with P. falciparum NF54 (5 uM) it was 98.36; in the series on P. falciparum NF54 (10 uM) it was 97.95. In addition, the half-maximal inhibitory concentration (IC50) in the series with P. falciparum NF54 turned out to be 380 nM; on HsNMT1 (setting [3]) it was 1630 nM; on PvNMT (setting [4]), 73 nM. This compound registered an SI at PvNMT of 22.

`Cc1nn(C)c(C)c1CCOc1cc(F)ccc1-c1cccc(OCCN(C)C)c1` [Compound 26c]: the “P. falciparum blood-stage development” value turned out to be 127.1 in the series on P. falciparum NF54 (0.625 uM); 126.9 with P. falciparum NF54 (1.25 uM); 117.8 in the series on P. falciparum NF54 (2.5 uM); 108.1 with P. falciparum NF54 (5 uM); 97.66 in the series on P. falciparum NF54 (10 uM). Further, the IC50 in the series with P. falciparum NF54 (Plasmodium falciparum, NF54) is 820 nM; against HsNMT1, 4790 nM; on PvNMT (setting [2]), 29.4 nM. Further, the half-maximal inhibitory concentration (IC50) at 48 h in series [1] is > 20000 nM. The compound further displayed an SI on PvNMT of 162.3.

Regarding `Cc1n[nH]c(C)c1CCOc1cc(F)ccc1-c1cccc(OCCN(C)C)c1` [Compound 26i], the “P. falciparum blood-stage development” value was 109.6 in the series with P. falciparum NF54 (0.625 uM); 112.9 in the series with P. falciparum NF54 (1.25 uM); 111.2 in the series with P. falciparum NF54 (2.5 uM); 93.25 in the series with P. falciparum NF54 (5 uM); 85.5 with P. falciparum NF54 (10 uM). The half-maximal inhibitory concentration (IC50) in the series with P. falciparum NF54 (Plasmodium falciparum, NF54) stood at 400 nM; against HsNMT1, 13900 nM; at PvNMT (setting [2]) it was 242 nM. In series [1], the concentration for half-maximal inhibition (IC50) at 48 h is > 20000 nM. This compound gave an SI on PvNMT of 57.

On to `Cc1nn(C)c(C)c1CCOc1ccccc1-c1cccc(N2CCNCC2)c1` [Compound 12d], for which the “P. falciparum blood-stage development” value stood at 123.5 in the series on P. falciparum NF54 (0.625 uM); 124.2 in the series on P. falciparum NF54 (1.25 uM); 118.5 in the series on P. falciparum NF54 (2.5 uM); 101.9 in the series on P. falciparum NF54 (5 uM); 92.65 in the series with P. falciparum NF54 (10 uM). In addition, the half-inhibitory concentration (IC50) in the series on P. falciparum NF54 (Plasmodium falciparum, NF54) amounted to 800 nM; against HsNMT1 it was 7440 nM; on PvNMT (setting [2]), 48.5 nM. In addition, in series [1], the IC50 at 48 h was > 20000 nM. Besides, the SI on PvNMT is 153.4.

Consider `Cc1nn(C)c(C)c1CCOc1cccnc1-c1cccc(N2CCNCC2)c1` [Compound 12b], for which the “P. falciparum blood-stage development” value in the series with P. falciparum NF54 (0.625 uM) stood at 118; in the series on P. falciparum NF54 (1.25 uM), 125.4; in the series on P. falciparum NF54 (2.5 uM), 119.5; with P. falciparum NF54 (5 uM), 108.7; in the series on P. falciparum NF54 (10 uM) it was 105.8. Also, the IC50 with P. falciparum NF54 (Plasmodium falciparum, NF54) is 470 nM; against HsNMT1, 20800 nM; against PvNMT (setting [2]), 80.2 nM and 80.1 nM. Further, in series [1], the half-inhibitory concentration (IC50) at 48 h is > 20000 nM. Besides, the SI on PvNMT was > 145 and > 150 and > 250.

For `c1cncc(CCOc2cccnc2-c2cccc(N3CCNCC3)c2)c1` [Compound 12g], the “P. falciparum blood-stage development” value with P. falciparum NF54 (0.625 uM) was 115; in the series with P. falciparum NF54 (1.25 uM), 117.7; in the series on P. falciparum NF54 (2.5 uM) it was 114.7; in the series with P. falciparum NF54 (5 uM), 99.89; with P. falciparum NF54 (10 uM), 87.22. For the same compound, the half-maximal inhibitory concentration (IC50) was found to be 600 nM in the series on P. falciparum NF54 (Plasmodium falciparum, NF54); 15900 nM against HsNMT1; 104 nM against PvNMT (setting [2]). For the same compound, the concentration for half-maximal inhibition (IC50) at 48 h in series [1] is > 20000 nM. Also, the SI at PvNMT was determined as 152.8.

As to `Cc1nn(C)c(C)c1CCOc1cccnc1-c1ccnc(N2CCNCC2)c1` [Compound 12a], the “P. falciparum blood-stage development” value worked out at 128.4 in the series on P. falciparum NF54 (0.625 uM); 125.3 in the series on P. falciparum NF54 (1.25 uM); 116.9 in the series with P. falciparum NF54 (2.5 uM); 107.7 with P. falciparum NF54 (5 uM); 96.27 with P. falciparum NF54 (10 uM). The half-maximal inhibitory concentration (IC50) amounted to 810 nM in the series on P. falciparum NF54 (Plasmodium falciparum, NF54); 5400 nM against HsNMT1; 36.8 nM against PvNMT (setting [2]). Further, the IC50 at 48 h in series [1] is > 20000 nM. This compound yielded an SI at PvNMT of 146.7.

Take `Cc1nn(C)c(C)c1CCOc1ccc2ccccc2c1-c1ccnc(N2CCNCC2)c1` [Compound 30a]: the “P. falciparum blood-stage development” value stood at 115.4 in the series with P. falciparum NF54 (0.625 uM); 121.5 in the series with P. falciparum NF54 (1.25 uM); 115.2 with P. falciparum NF54 (2.5 uM); 95.74 in the series with P. falciparum NF54 (5 uM); 95.74 in the series with P. falciparum NF54 (10 uM). In addition, the IC50 came to 440 nM with P. falciparum NF54, 24000 nM at HsNMT1 (setting [3]) and 89 nM at PvNMT (setting [4]). For the same compound, the SI at PvNMT is given as 269.8.
